One assay addresses T1, human CRF2a receptor (Homo sapiens, UniProt Q13324).
T1 construct: expressed in transfected cells; host or cells: TeloHEAC cells
T1 sequence (Q13324 1-411): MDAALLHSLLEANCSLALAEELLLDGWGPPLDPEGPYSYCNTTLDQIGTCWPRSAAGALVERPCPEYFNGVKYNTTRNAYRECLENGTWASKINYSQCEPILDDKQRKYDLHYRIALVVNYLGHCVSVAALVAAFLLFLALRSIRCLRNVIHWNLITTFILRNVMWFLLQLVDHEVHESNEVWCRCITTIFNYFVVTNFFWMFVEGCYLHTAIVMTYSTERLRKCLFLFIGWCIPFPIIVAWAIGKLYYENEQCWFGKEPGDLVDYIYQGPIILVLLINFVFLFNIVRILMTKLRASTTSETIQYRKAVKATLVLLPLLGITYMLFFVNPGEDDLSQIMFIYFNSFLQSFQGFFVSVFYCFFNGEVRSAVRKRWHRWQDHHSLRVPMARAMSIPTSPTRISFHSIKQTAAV
The experiment in a line: Activity at human CRF2a receptor, cAMP functional assay in TeloHEAC cells. In kind it is cell-based. Conditions: TeloHEAC cells stably expressing human CRF2a receptor, relative to urocortin 2 (100 nM = 100%). Summed up:
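cAMP accumulation was measured by HTRF 665/620 nm ratio after 30 min at 37° C compound exposure (16 twofold dilutions) of CRF2a-expressing TeloHEAC cells, 10000/well, in HEPES-buffered HBSS plus IBMX. Activity was normalised to urocortin 2 at 100 nM (100%), and EC50 was the concentration giving half-maximal activation.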

Another assay has as its target T2, CFR1R receptor (Homo sapiens, UniProt P34998).
T2 construct: host or cells: CHO-K1 (clone 2)
T2 sequence (P34998 24-415): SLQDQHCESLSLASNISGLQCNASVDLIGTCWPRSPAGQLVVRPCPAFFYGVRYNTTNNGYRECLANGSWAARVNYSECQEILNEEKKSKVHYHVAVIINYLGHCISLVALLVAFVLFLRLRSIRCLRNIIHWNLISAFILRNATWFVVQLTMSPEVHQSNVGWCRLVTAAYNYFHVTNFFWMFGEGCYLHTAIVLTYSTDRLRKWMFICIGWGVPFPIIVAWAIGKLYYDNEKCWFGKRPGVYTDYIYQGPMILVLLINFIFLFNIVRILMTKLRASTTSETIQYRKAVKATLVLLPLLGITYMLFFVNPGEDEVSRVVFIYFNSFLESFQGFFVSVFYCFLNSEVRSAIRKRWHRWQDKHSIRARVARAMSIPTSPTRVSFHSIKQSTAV
The experiment in a line: Activity at anti-target CFR1R receptor, cAMP assay in CRF1R-overexpression CHO-K1 cells. In kind it is cell-based. Conditions: 100% = Sauvagine at 100 nM; for EC50: cAMP. In a few lines: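 Run as for the TeloHAEC line, except the full-activation control well received Sauvagine (100 nM) and final density was 4000 cells/well. Cells from clone 2 came from frozen aliquots of near-confluent cultures.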
A general note: Changes in cAMP serve as a functional read-out for many G protein-coupled receptors.

Structures are written as SMILES. *1 amine or outer side, *2 acyl side, *3 side chain or, on linkers, in order; H or OH if unused. Where a SMILES comes first, the peptide text is derived from it. Side-chain parts run from the residue outwards. [ ]: non-standard residue; d: D form. The star is where a group is joined. C18 diacid = O=C(O)CCCCCCCCCCCCCCCCC(=O)*; γGlu = O=C(O)[C@H](CCC(=O)[*:2])N[*:1]; Api = NC1(C(=O)O)CCNCC1; Abu = CC[C@H](N)C(=O)O; Dap = NC[C@H](N)C(=O)O Where only a bound is given, the exact number is not on record here.

Usually EC50 stands for the concentration needed to bring the measured effect to its halfway point.

In the case of `CC[C@H](C)[C@H](NC(C)=O)C(=O)N[C@H](C(=O)N[C@@H](CC(C)C)C(=O)N[C@@H](CO)C(=O)N[C@@H](CC(C)C)C(=O)N[C@@H](CC(=O)O)C(=O)N[C@@H](C(=O)N1CCC[C@H]1C(=O)N[C@H](C(=O)N[C@@H](CCCCN)C(=O)N[C@@H](CC(C)C)C(=O)N[C@@H](CCCCNC(=O)CC[C@H](NC(=O)CCCCCCCCCCCCCCCCC(=O)O)C(=O)O)C(=O)N[C@@H](CCCCN)C(=O)N[C@H](C(=O)N[C@@H](CC(C)C)C(=O)N[C@@H](CC(C)C)C(=O)N[C@@H](CCC(=O)O)C(=O)N[C@@H](CCC(N)=O)C(=O)N[C@@H](CCC(=O)O)C(=O)N[C@@H](CCCCN)C(=O)N[C@@H](CCC(N)=O)C(=O)N[C@@H](CCCCN)C(=O)N[C@@H](CCCCN)C(=O)N[C@@H](CCC(N)=O)C(=O)N[C@@H](CCCNC(=N)N)C(=O)N[C@@H](CCC(=O)O)C(=O)N[C@@H](CCC(N)=O)C(=O)N[C@@H](C)C(=O)N[C@@H](CCC(=O)O)C(=O)N[C@H](C(=O)N[C@@H](CC(N)=O)C(=O)N[C@@H](C)C(=O)N[C@@H](CCC(N)=O)C(=O)N[C@H](C(=O)N[C@@H](CC(C)C)C(=O)N[C@@H](C)C(=O)N[C@@H](CCC(N)=O)C(=O)N[C@H](C(N)=O)C(C)C)[C@@H](C)CC)[C@@H](C)O)[C@@H](C)CC)[C@@H](C)CC)C(C)C)C(C)C` [compound 126] (Ac-IVLSLD[dV]PIKLK([γGlu-C18 diacid])KILLEQEKQKKQREQAETNAQILAQV-NH2), the EC50 at human CRF2a receptor amounted to 0.05 nM. For the same molecule, at CFR1R receptor, the “Emax (% I)” value is given as 20 % I and the EC50 was over 250 nM.

As to `CC[C@H](NC(=O)[C@H](CC(N)=O)NC(=O)[C@@H](NC(=O)[C@H](CCC(=O)O)NC(=O)[C@H](C)NC(=O)[C@H](CCC(N)=O)NC(=O)[C@H](CCC(=O)O)NC(=O)[C@H](CCCNC(=N)N)NC(=O)[C@H](CCC(N)=O)NC(=O)[C@H](CCCCN)NC(=O)[C@H](CCCCN)NC(=O)[C@H](CCC(N)=O)NC(=O)[C@H](CCCCN)NC(=O)[C@H](CCC(=O)O)NC(=O)[C@H](CCC(N)=O)NC(=O)[C@H](CCC(=O)O)NC(=O)[C@H](CC(C)C)NC(=O)[C@H](CC(C)C)NC(=O)[C@@H](NC(=O)[C@H](CCCCN)NC(=O)[C@H](CCCCNC(=O)CC[C@H](NC(=O)CCCCCCCCCCCCCCCCC(=O)O)C(=O)O)NC(=O)[C@H](CC(C)C)NC(=O)[C@H](CCCCN)NC(=O)[C@@H](NC(=O)[C@@H]1CCCN1C(=O)[C@H](NC(=O)[C@H](CC(=O)O)NC(=O)[C@H](CC(C)C)NC(=O)[C@H](CO)NC(=O)[C@H](CC(C)C)NC(=O)[C@@H](NC(=O)[C@@H](NC(C)=O)[C@@H](C)CC)C(C)C)C(C)C)[C@@H](C)CC)[C@@H](C)CC)[C@@H](C)O)C(=O)N[C@@H](CCC(N)=O)C(=O)N[C@H](C(=O)N[C@@H](CC(C)C)C(=O)N[C@@H](C)C(=O)N[C@@H](CCC(N)=O)C(=O)N[C@H](C(N)=O)C(C)C)[C@@H](C)CC` [compound 127] (Ac-IVLSLD[dV]PIKLK([γGlu-C18 diacid])KILLEQEKQKKQREQAETN[Abu]QILAQV-NH2), the EC50 at human CRF2a receptor was 0.08 nM; at CFR1R receptor it was over 250 nM. Also, the “Emax (% I)” value at CFR1R receptor was 11 % I.

Consider `CC[C@H](C)[C@H](NC(C)=O)C(=O)N[C@H](C(=O)N[C@@H](CC(C)C)C(=O)N[C@@H](CO)C(=O)N[C@@H](CC(C)C)C(=O)N[C@@H](CC(=O)O)C(=O)N[C@@H](C(=O)N1CCC[C@H]1C(=O)N[C@H](C(=O)N[C@@H](CCCCN)C(=O)N[C@@H](CC(C)C)C(=O)N[C@@H](CCCCNC(=O)CC[C@H](NC(=O)CCCCCCCCCCCCCCCCC(=O)O)C(=O)O)C(=O)N[C@@H](CCCCN)C(=O)N[C@H](C(=O)N[C@@H](CC(C)C)C(=O)N[C@@H](CC(C)C)C(=O)N[C@@H](CCC(=O)O)C(=O)N[C@@H](CCC(N)=O)C(=O)N[C@@H](CCC(=O)O)C(=O)N[C@@H](CCCCN)C(=O)N[C@@H](CCC(N)=O)C(=O)N[C@@H](CCCCN)C(=O)N[C@@H](CCCCN)C(=O)N[C@@H](CCC(N)=O)C(=O)N[C@@H](CCCNC(=N)N)C(=O)N[C@@H](CCC(=O)O)C(=O)N[C@@H](CCC(N)=O)C(=O)N[C@@H](C)C(=O)N[C@@H](CCC(=O)O)C(=O)N[C@H](C(=O)N[C@@H](CC(N)=O)C(=O)N[C@@H](CN)C(=O)N[C@@H](CCC(N)=O)C(=O)N[C@H](C(=O)N[C@@H](CC(C)C)C(=O)N[C@@H](C)C(=O)N[C@@H](CCC(N)=O)C(=O)N[C@H](C(N)=O)C(C)C)[C@@H](C)CC)[C@@H](C)O)[C@@H](C)CC)[C@@H](C)CC)C(C)C)C(C)C` [compound 128] (Ac-IVLSLD[dV]PIKLK([γGlu-C18 diacid])KILLEQEKQKKQREQAETN[Dap]QILAQV-NH2), for which the EC50 at human CRF2a receptor is 0.17 nM. In addition, at CFR1R receptor, the “Emax (% I)” value is listed as 10 % I and the EC50 is over 250 nM.

On human CRF2a receptor, `CC[C@H](C)[C@H](NC(C)=O)C(=O)N[C@H](C(=O)N[C@@H](CC(C)C)C(=O)N[C@@H](CO)C(=O)N[C@@H](CC(C)C)C(=O)N[C@@H](CC(=O)O)C(=O)N[C@@H](C(=O)N1CCC[C@H]1C(=O)N[C@H](C(=O)N[C@@H](CCCCN)C(=O)N[C@@H](CC(C)C)C(=O)N[C@@H](CCCCNC(=O)CC[C@H](NC(=O)CCCCCCCCCCCCCCCCC(=O)O)C(=O)O)C(=O)N[C@@H](CCCCN)C(=O)N[C@H](C(=O)N[C@@H](CC(C)C)C(=O)N[C@@H](CC(C)C)C(=O)N[C@@H](CCC(=O)O)C(=O)N[C@@H](CCC(N)=O)C(=O)N[C@@H](CCC(=O)O)C(=O)N[C@@H](CCCCN)C(=O)N[C@@H](CCC(N)=O)C(=O)N[C@@H](CCCCN)C(=O)N[C@@H](CCCCN)C(=O)N[C@@H](CCC(N)=O)C(=O)N[C@@H](CCCNC(=N)N)C(=O)N[C@@H](CCC(=O)O)C(=O)N[C@@H](CCC(N)=O)C(=O)N[C@@H](C)C(=O)N[C@@H](CCC(=O)O)C(=O)N[C@H](C(=O)N[C@@H](CC(N)=O)C(=O)NC1(C(=O)N[C@@H](CCC(N)=O)C(=O)N[C@H](C(=O)N[C@@H](CC(C)C)C(=O)N[C@@H](C)C(=O)N[C@@H](CCC(N)=O)C(=O)N[C@H](C(N)=O)C(C)C)[C@@H](C)CC)CCNCC1)[C@@H](C)O)[C@@H](C)CC)[C@@H](C)CC)C(C)C)C(C)C` [compound 129] (Ac-IVLSLD[dV]PIKLK([γGlu-C18 diacid])KILLEQEKQKKQREQAETN[Api]QILAQV-NH2) yielded an EC50 of 0.14 nM. Further, the “Emax (% I)” value on CFR1R receptor is recorded as 39 % I.

Molecule `CC[C@H](C)[C@H](NC(C)=O)C(=O)N[C@H](C(=O)N[C@@H](CC(C)C)C(=O)N[C@@H](CO)C(=O)N[C@@H](CC(C)C)C(=O)N[C@@H](CC(=O)O)C(=O)N[C@@H](C(=O)N1CCC[C@H]1C(=O)N[C@H](C(=O)N[C@@H](CCCCN)C(=O)N[C@@H](CC(C)C)C(=O)N[C@@H](CCCCNC(=O)CC[C@H](NC(=O)CCCCCCCCCCCCCCCCC(=O)O)C(=O)O)C(=O)N[C@@H](CCCCN)C(=O)N[C@H](C(=O)N[C@@H](CC(C)C)C(=O)N[C@@H](CC(C)C)C(=O)N[C@@H](CCC(=O)O)C(=O)N[C@@H](CCC(N)=O)C(=O)N[C@@H](CCC(=O)O)C(=O)N[C@@H](CCCCN)C(=O)N[C@@H](CCC(N)=O)C(=O)N[C@@H](CCCCN)C(=O)N[C@@H](CCCCN)C(=O)N[C@@H](CCC(N)=O)C(=O)N[C@@H](CCCNC(=N)N)C(=O)N[C@@H](CCC(=O)O)C(=O)N[C@@H](CCC(N)=O)C(=O)N[C@@H](C)C(=O)N[C@@H](CCC(=O)O)C(=O)N[C@H](C(=O)N[C@@H](CC(N)=O)C(=O)N[C@@H](CCC(=O)O)C(=O)N[C@@H](CCC(N)=O)C(=O)N[C@H](C(=O)N[C@@H](CC(C)C)C(=O)N[C@@H](C)C(=O)N[C@@H](CCC(N)=O)C(=O)N[C@H](C(N)=O)C(C)C)[C@@H](C)CC)[C@@H](C)O)[C@@H](C)CC)[C@@H](C)CC)C(C)C)C(C)C` [compound 130] (Ac-IVLSLD[dV]PIKLK([γGlu-C18 diacid])KILLEQEKQKKQREQAETNEQILAQV-NH2) gave an EC50 at human CRF2a receptor of 0.08 nM. At CFR1R receptor, the “Emax (% I)” value was determined as 4 % I and the EC50 is over 250 nM.

The values are drawn from patent US20260001928A1 (CORTERIA PHARMACEUTICALS, priority 2022, published 2026).
